# According to patent US10292382B2, “No-spin cryopreservation technique and resulting products” (Biopredic International, priority 2014, dated 2019):
# Legend:
# cells = settings: above 4° C.; cited from earlier work
# Protocol for Fresh human hepatocytes: In this Example, testing was carried out to determine the effect of different concentrations of DMSO (0 to 2%) on the cell plateability/attachment using the inventive, direct NS plating method.
# Fresh human hepatocytes having 78% viability, corresponding generally to customary thawed cell viability, were plated with DMSO in concentrations ranging from 0 to 2%. The cells were plated without Percoll density gradient centrifugation for both classical and NS methods. The cell seeding density was 0.37 million cells/well (MW24 plate) for both classical & NS methods. The cells were evaluated for cell morphology, plateability, and metabolic activity.
# The DMSO, as a cryoprotectant included in freezing medium, has been tested at final concentrations up to 2% in the cell plating medium.
smiles,measurement,setting,value
"C[S+](C)[O-] [DMSO, dimethyl sulfoxide]",DMSO concentration demonstrated to be toxic,cells,up to 2%
same,maximum tolerated DMSO percentage in hepatocyte-NS plating medium for cell attachment,Fresh human hepatocytes,less than 1 % (v/v)
